The source made the active and inactive calls. No cut-off for these calls is given here.
Legend:
[1] = tested on: NUGC-3; test: Growth of human NUGC3 cells at 0.3 uM after 48 hrs by SRB assay; settings: NUGC-3, 48 h
[2] = tested on: NUGC-3; test: Growth of human NUGC3 cells at 1 uM after 48 hrs by SRB assay; settings: NUGC-3, 48 h
[3] = tested on: NUGC-3; test: Growth inhibition of human NUGC3 cells at 10 uM after 48 hrs by SRB assay; values are per cent of control; settings: NUGC-3, 48 h
[4] = tested on: ACHN; test: Growth inhibition of human ACHN cells at 1 uM after 48 hrs by SRB assay; values are per cent of control
[5] = tested on: HCT-15; test: Growth of human HCT15 cells at 0.3 uM after 48 hrs by SRB assay; settings: HCT-15, 48 h
[6] = tested on: ACHN; test: Growth of human ACHN cells at 0.1 uM after 48 hrs by SRB assay
[7] = tested on: NUGC-3; test: Growth inhibition of human NUGC3 cells at 3 uM after 48 hrs by SRB assay; values are per cent of control; settings: NUGC-3, 48 h
[8] = tested on: PC-3; test: Growth of human PC3 cells at 10 uM after 48 hrs by SRB assay; settings: PC-3, 48 h
[9] = tested on: HCT-15; test: Growth inhibition of human HCT15 cells at 1 uM after 48 hrs by SRB assay; values are per cent of control; settings: HCT-15, 48 h
[10] = tested on: NCI-H23; test: Growth inhibition of human NCI-H23 cells at 1 uM after 48 hrs by SRB assay; values are per cent of control; settings: NCI-H23, 48 h
[11] = tested on: NCI-H23; test: Growth inhibition of human NCI-H23 cells at 0.1 uM after 48 hrs by SRB assay; values are per cent of control; settings: NCI-H23, 48 h
[12] = tested on: PC-3; test: Growth inhibition of human PC3 cells after 48 hrs by SRB assay; assay type: functional; settings: PC-3, 48 h
[13] = tested on: PC-3; test: Growth inhibition of human PC3 cells at 3 uM after 48 hrs by SRB assay; values are per cent of control; settings: PC-3, 48 h
[14] = tested on: HCT-15; test: Growth inhibition of human HCT15 cells at 10 uM after 48 hrs by SRB assay; values are per cent of control; settings: HCT-15, 48 h
[15] = tested on: PC-3; test: Growth inhibition of human PC3 cells at 0.1 uM after 48 hrs by SRB assay; values are per cent of control; settings: PC-3, 48 h
[16] = tested on: ACHN; test: Growth inhibition of human ACHN cells after 48 hrs by SRB assay; assay type: functional
[17] = target: Rho-related GTP-binding protein RhoB (Homo sapiens) (UniProt P62745); test: Transactivation of RhoB (unknown origin) transfected in human HeLa cells at 5 uM measured over 10 secs by dual luciferase reporter gene assay; assay type: cell-based
[18] = tested on: NCI-H23; test: Growth inhibition of human NCI-H23 cells after 48 hrs by SRB assay; assay type: functional; settings: NCI-H23, 48 h
[19] = tested on: MDA-MB-231; test: Growth of human MDA-MB-231 cells at 0.1 uM after 48 hrs by SRB assay; settings: MDA-MB-231, 48 h
[20] = tested on: ACHN; test: Growth of human ACHN cells at 0.3 uM after 48 hrs by SRB assay
[21] = tested on: NCI-H23; test: Growth inhibition of human NCI-H23 cells at 3 uM after 48 hrs by SRB assay; values are per cent of control; settings: NCI-H23, 48 h
[22] = tested on: NUGC-3; test: Growth of human NUGC3 cells at 0.1 uM after 48 hrs by SRB assay; settings: NUGC-3, 48 h
[23] = tested on: NCI-H23; test: Growth of human NCI-H23 cells at 10 uM after 48 hrs by SRB assay; settings: NCI-H23, 48 h
[24] = tested on: PC-3; test: Growth inhibition of human PC3 cells at 1 uM after 48 hrs by SRB assay; values are per cent of control; settings: PC-3, 48 h
[25] = tested on: NUGC-3; test: Growth inhibition of human NUGC3 cells after 48 hrs by SRB assay; assay type: functional; settings: NUGC-3, 48 h
[26] = tested on: ACHN; test: Growth inhibition of human ACHN cells at 3 uM after 48 hrs by SRB assay; values are per cent of control
[27] = tested on: MDA-MB-231; test: Growth of human MDA-MB-231 cells at 3 uM after 48 hrs by SRB assay; values are per cent of control; settings: MDA-MB-231, 48 h
[28] = tested on: HCT-15; test: Growth of human HCT15 cells at 3 uM after 48 hrs by SRB assay; settings: HCT-15, 48 h
[29] = tested on: MDA-MB-231; test: Growth inhibition of human MDA-MB-231 cells after 48 hrs by SRB assay; assay type: functional; settings: MDA-MB-231, 48 h
[30] = tested on: PC-3; test: Growth inhibition of human PC3 cells at 0.3 uM after 48 hrs by SRB assay; values are per cent of control; settings: PC-3, 48 h
[31] = tested on: MDA-MB-231; test: Growth inhibition of human MDA-MB-231 cells at 0.3 uM after 48 hrs by SRB assay; values are per cent of control; settings: MDA-MB-231, 48 h
[32] = tested on: HCT-15; test: Growth inhibition of human HCT15 cells after 48 hrs by SRB assay; assay type: functional; settings: HCT-15, 48 h
[33] = tested on: MDA-MB-231; test: Growth of human MDA-MB-231 cells at 10 uM after 48 hrs by SRB assay; settings: MDA-MB-231, 48 h
[34] = tested on: HCT-15; test: Growth inhibition of human HCT15 cells at 0.1 uM after 48 hrs by SRB assay; values are per cent of control; settings: HCT-15, 48 h
[35] = tested on: NCI-H23; test: Growth of human NCI-H23 cells at 0.3 uM after 48 hrs by SRB assay; settings: NCI-H23, 48 h
[36] = tested on: MDA-MB-231; test: Growth of human MDA-MB-231 cells at 1 uM after 48 hrs by SRB assay; settings: MDA-MB-231, 48 h
[37] = tested on: ACHN; test: Growth of human ACHN cells at 10 uM after 48 hrs by SRB assay

Rho-related GTP-binding protein RhoB (Homo sapiens), sequence (P62745 whole entry): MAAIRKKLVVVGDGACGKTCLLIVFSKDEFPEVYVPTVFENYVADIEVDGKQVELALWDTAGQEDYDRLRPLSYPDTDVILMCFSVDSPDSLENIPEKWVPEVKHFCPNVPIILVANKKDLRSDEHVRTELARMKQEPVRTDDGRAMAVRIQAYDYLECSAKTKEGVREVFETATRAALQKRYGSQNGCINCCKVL

| GI50 [12] [nM] | GI50 [16] [nM] | Activity [17] | GI50 [18] [nM] | Structure (SMILES) | growth, % of control at 0.3 µM [1] [%] | growth, % of control at 1 µM [2] [%] | growth, % of control at 10 µM [3] [%] | growth, % of control at 1 µM [4] [%] | growth, % of control at 0.3 µM [5] [%] | growth, % of control at 0.1 µM [6] [%] | growth, % of control at 3 µM [7] [%] | growth, % of control at 10 µM [8] [%] | growth, % of control at 1 µM [9] [%] | growth, % of control at 1 µM [10] [%] | growth, % of control at 0.1 µM [11] [%] | growth, % of control at 3 µM [13] [%] | growth, % of control at 10 µM [14] [%] | growth, % of control at 0.1 µM [15] [%] | growth, % of control at 0.1 µM [19] [%] | growth, % of control at 0.3 µM [20] [%] | also measured |
| --- | --- | --- | --- | --- | --- | --- | --- | --- | --- | --- | --- | --- | --- | --- | --- | --- | --- | --- | --- | --- | --- |
| 300 | 1010 | Active | 210 | CCCCCCCCCCCCCCS(=O)(=O)N(C)CCC[N+](C)(C)C | 42.8 | 22.7 | -12.9 | 57.2 | 87.9 | 85.3 | 8.5 | -17.4 | 46.2 | 8 | 84.8 | -0.1 | 24.8 | 97.1 | 102 | 93.4 | growth, % of control at 3 µM [21]: -19.7%; growth, % of control at 0.1 µM [22]: 83.9%; growth, % of control at 10 µM [23]: -50.6%; growth, % of control at 1 µM [24]: 18.6%; GI50 [25]: 150 nM; growth, % of control at 3 µM [26]: 37.8%; growth, % of control at 3 µM [27]: 42.1%; growth, % of control at 3 µM [28]: 29.9%; GI50 [29]: 1260 nM; growth, % of control at 0.3 µM [30]: 86.4%; growth, % of control at 0.3 µM [31]: 98.1%; GI50 [32]: 680 nM; growth, % of control at 10 µM [33]: 23.5%; growth, % of control at 0.1 µM [34]: 92.4%; growth, % of control at 0.3 µM [35]: 70.6%; growth, % of control at 1 µM [36]: 66.6%; growth, % of control at 10 µM [37]: 27.1% |
| 470 | 1400 | Active | 2040 | CCCCCCCCCCCCCCS(=O)(=O)N(C)CC[N+](C)(C)C | 84.5 | 34.4 | 9 | 71.6 | 97.5 | 107 | 18.4 | -14.3 | 55.6 | 86.3 | 94.5 | 11.4 | 20.2 | 92 | 99.1 | 100 | growth, % of control at 3 µM [21]: 59.1%; growth, % of control at 0.1 µM [22]: 92.4%; growth, % of control at 10 µM [23]: 23.7%; growth, % of control at 1 µM [24]: 45.1%; GI50 [25]: 390 nM; growth, % of control at 3 µM [26]: 47.2%; growth, % of control at 3 µM [27]: 35.3%; growth, % of control at 3 µM [28]: 26.9%; GI50 [29]: 920 nM; growth, % of control at 0.3 µM [30]: 93.6%; growth, % of control at 0.3 µM [31]: 98.2%; GI50 [32]: 750 nM; growth, % of control at 10 µM [33]: 7.8%; growth, % of control at 0.1 µM [34]: 95.7%; growth, % of control at 0.3 µM [35]: 100%; growth, % of control at 1 µM [36]: 66.3%; growth, % of control at 10 µM [37]: 21.3% |
